One test has as its target T1, human CB1 receptors (Homo sapiens, UniProt P21554).
T1 construct: (cDNA clone) CNR01L000
Kind of test: cAMP assay in HEK-293 cells, hCB1 agonist. Format: cell-based. The method, boiled down:
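Stable hCB1 HEK-293 cells suspended in HBSS with 10 mM HEPES and 0.1% fatty acid-free BSA, incubated 30 min at 37° C. with compound plus forskolin (90 uM in the 3× compound solution). Lysed cAMP measured by enzyme-fragment kit; EC50 = 50% inhibition of forskolin-stimulated cAMP (forskolin maximum = 100%), sigmoidal fit.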

For test [1], the target named is T2, recombinant human cannabinoid receptor CB2 (Homo sapiens, UniProt P34972).
T2 construct: (cDNA clone) CNR0200000
T2 sequence (P34972 whole entry): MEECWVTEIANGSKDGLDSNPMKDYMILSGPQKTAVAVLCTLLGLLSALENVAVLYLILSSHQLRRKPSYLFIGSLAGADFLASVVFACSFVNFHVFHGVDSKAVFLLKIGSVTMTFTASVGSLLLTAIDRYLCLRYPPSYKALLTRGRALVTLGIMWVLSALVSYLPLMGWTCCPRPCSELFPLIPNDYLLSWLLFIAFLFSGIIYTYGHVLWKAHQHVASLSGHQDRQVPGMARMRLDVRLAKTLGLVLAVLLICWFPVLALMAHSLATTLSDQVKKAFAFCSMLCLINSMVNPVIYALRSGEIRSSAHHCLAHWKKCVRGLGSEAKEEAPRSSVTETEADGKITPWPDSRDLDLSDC
Kind of test: Cannabinoid receptor radioligand binding assay, [3H]-CP 55,940 displacement, hCB2. The method, boiled down: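 Membranes from hCB2-transfected cells, prepared by 1000×g then 40,000×g centrifugation, resuspended in 20 mM HEPES pH 7.4, 5 mM MgCl2, 1 mM EDTA, 10% sucrose.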

Setting [2] is: inhibition of forskolin-stimulated cAMP, HEK-293 cells.
Where [3] appears, read: inhibition of forskolin-stimulated cAMP, HEK-293 cells, read-out: hCB1 EC50 (cAMP ag).

This note sets out measurements from patent US20130029970A1 (priority 2009, published 2013).

SMILES strings stand for the structures. Where two headings read alike, the source gives them in different places.

As usually defined, the IC50 is the point on the concentration scale where inhibition reaches its midpoint. What is called EC50 is the concentration giving half of the maximal effect.

T1 sequence (P21554 whole entry): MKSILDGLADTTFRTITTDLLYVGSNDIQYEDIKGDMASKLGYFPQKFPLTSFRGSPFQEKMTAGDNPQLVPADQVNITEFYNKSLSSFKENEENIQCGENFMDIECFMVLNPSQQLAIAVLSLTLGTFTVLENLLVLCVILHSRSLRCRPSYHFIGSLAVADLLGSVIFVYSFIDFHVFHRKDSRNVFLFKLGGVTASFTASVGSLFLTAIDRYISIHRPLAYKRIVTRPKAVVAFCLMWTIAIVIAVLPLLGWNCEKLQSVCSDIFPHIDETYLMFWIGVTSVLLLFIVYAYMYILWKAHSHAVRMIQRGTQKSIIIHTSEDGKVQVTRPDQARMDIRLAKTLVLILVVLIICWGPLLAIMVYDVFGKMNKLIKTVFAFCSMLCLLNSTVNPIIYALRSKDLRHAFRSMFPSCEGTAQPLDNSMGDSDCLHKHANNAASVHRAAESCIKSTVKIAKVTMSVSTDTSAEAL

As for `C=Cn1c(C)cc2cc(C(=O)c3cccc(Cl)c3Cl)sc21` [Comp 29], the “hCB1 EC50 (cAMP ag, nM)” value at human CB1 receptors (setting [2]) is “NS (NS means “Not Significant,” which means less than 30% agonist activity when compared to the positive control.)”. In addition, the concentration for half-maximal inhibition (IC50) in test [1] lay within 1000 to 10000 nM.
Consider `Cc1cc2cc(C(=O)c3cccc(Cl)c3Cl)sc2n1CCN1CCOCC1` [Compound 1, (2,3-dichlorophenyl)(5-methyl-6-(2-morpholinoethyl)-6H-thieno[2,3-b]pyrrol-2-yl)methanone], for which, on human CB1 receptors (setting [3]), the half-maximal effective concentration (EC50) is over 10000 nM. Also, the half-inhibitory concentration (IC50) in test [1] is under 100 nM.
Consider `CCCn1c(C)cc2cc(C(=O)c3cccc(Cl)c3Cl)sc21` [Compound 3, (2,3-Dichlorophenyl)(5-methyl-6-propyl-6H-thieno[2,3-b]pyrrol-2-yl)methanone], for which the “hCB1 EC50 (cAMP ag, nM)” value at human CB1 receptors (setting [2]) is “NS (NS means “Not Significant,” which means less than 30% agonist activity when compared to the positive control.)”. In addition, the IC50 in test [1] lay within 100 to 1000 nM.
Consider `Cc1cc2cc(C(=O)c3ccccc3Cl)sc2n1CCN1CCOCC1` [Compound 5, (2-Chlorophenyl)(5-methyl-6-(2-morpholinoethyl)-61-1-thieno[2,3-b]pyrrol-2-yl)methanone], for which the EC50 on human CB1 receptors (setting [3]) was 100 to 1000 nM. Also, the IC50 in test [1] was under 100 nM.
On to `Cc1cc2cc(C(=O)c3ccc(Cl)cc3)sc2n1CCN1CCOCC1` [Compound 6, (4-Chlorophenyl)(5-methyl-6-(2-morpholinoethyl)-6H-thieno[2,3-b]pyrrol-2-yl)methanone], for which the “hCB1 EC50 (cAMP ag, nM)” value on human CB1 receptors (setting [2]) is recorded as “NS (NS means “Not Significant,” which means less than 30% agonist activity when compared to the positive control.)”. Moreover, the half-inhibitory concentration (IC50) in test [1] was in the range of 100 to 1000 nM.
For `Cc1cc2cc(C(=O)c3cccc(F)c3F)sc2n1CCN1CCOCC1` [Compound 8, (2,3-Difluorophenyl)(5-methyl-6-(2-morpholinoethyl)-6H-thieno[2,3-b]pyrrol-2-yl)methanone] the same measures were “NS (NS means “Not Significant,” which means less than 30% agonist activity when compared to the positive control.)” and 100 to 1000 nM.
For `Cc1cc2cc(C(=O)c3ccc(Cl)c(Cl)c3)sc2n1CCN1CCOCC1` [Compound 9, (3,4-Dichlorophenyl)(5-methyl-6-(2-morpholinoethyl)-6H-thieno[2,3-b]pyrrol-2-yl)methanone], the “hCB1 EC50 (cAMP ag, nM)” value at human CB1 receptors (setting [2]) is “NS (NS means “Not Significant,” which means less than 30% agonist activity when compared to the positive control.)”. For the same molecule, the IC50 in test [1] lay in the range of 100 to 1000 nM.
On to `Cc1cc2cc(C(=O)c3cccc4c3OCC4)sc2n1CCN1CCOCC1` [Compound 11, (2,3-Dihydrobenzofuran-7-yl)(5-methyl-6-(2-morpholinoethyl)-6H-thieno[2,3-b]pyrrol-2-yl)methanone], for which, at human CB1 receptors (setting [3]), the EC50 was in the range of 100 to 1000 nM. Besides, in test [1], the IC50 lay in the range of 100 to 1000 nM.
Regarding `COc1ccccc1C(=O)c1cc2cc(C)n(CCN3CCOCC3)c2s1` [Compound 13, (2-Methoxyphenyl)(5-methyl-6-(2-morpholinoethyl)-6H-thieno[2,3-b]pyrrol-2-yl)methanone], on human CB1 receptors (setting [3]), the concentration giving a half-maximal response (EC50) was in the range of 100 to 1000 nM. Also, in test [1], the IC50 is under 100 nM.
Turning to `Cc1cc2cc(C(=O)c3cccnc3Cl)sc2n1CCN1CCOCC1` [Compound 17, (2-Chloropyridin-3-yl)(5-methyl-6-(2-morpholinoethyl)-6H-thieno[2,3-b]pyrrol-2-yl)methanone], the “hCB1 EC50 (cAMP ag, nM)” value at human CB1 receptors (setting [2]) is “NS (NS means “Not Significant,” which means less than 30% agonist activity when compared to the positive control.)”. Also, the half-inhibitory concentration (IC50) in test [1] was in the range of 100 to 1000 nM.
Consider `Cc1cc2cc(C(=O)c3cccc(Cl)c3Cl)sc2n1CCC1CCOCC1` [Compound 18, (2,3-Dichlorophenyl)(5-methyl-6-(2-(tetrahydro-2H-pyran-4-yl)ethyl)-6H-thieno[2,3-b]pyrrol-2-yl)methanone], for which the concentration for a half-maximal effect (EC50) on human CB1 receptors (setting [3]) is 100 to 1000 nM. Further, the IC50 in test [1] was under 100 nM.
As to `COCCn1c(C)cc2cc(C(=O)c3cccc(Cl)c3Cl)sc21` [Compound 21, (2,3-Dichlorophenyl)(6-(2-methoxyethyl)-5-methyl-6H-thieno[2,3-b]pyrrol-2-yl)methanone], the EC50 on human CB1 receptors (setting [3]) is 1000 to 10000 nM. For the same molecule, the IC50 in test [1] is 100 to 1000 nM.
On to `Cc1cc2cc(C(=O)c3cccc(Cl)c3Cl)sc2n1CCN1CCCCC1` [Compound 23, (2,3-Dichlorophenyl)(5-methyl-6-(2-(piperidin-1-yl)ethyl)-6H-thieno[2,3-b]pyrrol-2-yl)methanone], for which the “hCB1 EC50 (cAMP ag, nM)” value on human CB1 receptors (setting [2]) is reported as “NS (NS means “Not Significant,” which means less than 30% agonist activity when compared to the positive control.)”. Moreover, in test [1], the 50% inhibitory concentration (IC50) is under 100 nM.
For the molecule `Cc1cc2cc(C(=O)c3cccc(Cl)c3Cl)sc2n1CC1CCCCN1C` (stereo not drawn) [Compound 24, (2,3-Dichlorophenyl)(5-methyl-6((1-methylpiperidin-2-yl)methyl)-6H-thieno[2,3-b]pyrrol-2-yl)methanone], at human CB1 receptors (setting [2]), the “hCB1 EC50 (cAMP ag, nM)” value is “NS (NS means “Not Significant,” which means less than 30% agonist activity when compared to the positive control.)”. Also, in test [1], the 50% inhibitory concentration (IC50) was under 100 nM.
Take `Cc1cc2cc(C(=O)c3cccc(Cl)c3Cl)sc2n1CCN1CCCC1` [Compound 28, (2,3-Dichlorophenyl)(5-methyl-6-(2-(pyrrolidin-1-yl)ethyl)-6H-thieno[2,3-b]pyrrol-2-yl)methanone]: at human CB1 receptors (setting [2]), the “hCB1 EC50 (cAMP ag, nM)” value is reported as “NS (NS means “Not Significant,” which means less than 30% agonist activity when compared to the positive control.)”. Further, in test [1], the 50% inhibitory concentration (IC50) is under 100 nM.
For `COc1ccc(C(=O)c2cc3cc(C)n(CCN4CCOCC4)c3s2)cc1` [Compound 36, (4-methoxyphenyl)(5-methyl-6-(2-morpholinoethyl)-6H-thieno[2,3-b]pyrrol-2-yl)methanone], the half-maximal effective concentration (EC50) on human CB1 receptors was in the range of 1000 to 10000 nM. In addition, the half-inhibitory concentration (IC50) in test [1] is under 100 nM.
For the molecule `Cc1cc2cc(C(=O)c3cccc(Cl)c3Cl)sc2n1S(=O)(=O)N(C)C` [Compound 41, 2-(2,3-Dichlorobenzoyl)-N,N,5-trimethyl-6H-thieno[2,3-b]pyrrole-6-sulfonamide], the EC50 at human CB1 receptors (setting [3]) is 1000 to 10000 nM. In addition, the half-maximal inhibitory concentration (IC50) in test [1] was under 100 nM.
For `Cc1cc2cc(C(=O)c3ccccc3N)sc2n1CCN1CCOCC1` [Compound 48, (2-Aminophenyl)(5-methyl-6-(2-morpholinoethyl)-6H-thieno[2,3-b]pyrrol-2-yl)methanone] the same measures were 1000 to 10000 nM and under 100 nM.
Consider `COCCn1c(C)cc2cc(C(=O)c3ccc(OC)cc3)sc21` [Compound 49, (6-(2-Methoxyethyl)-5-methyl-6H-thieno[2,3-b]pyrrol-2-yl)(4-methoxyphenyl)methanone], for which, on human CB1 receptors (setting [2]), the “hCB1 EC50 (cAMP ag, nM)” value is recorded as “NS (NS means “Not Significant,” which means less than 30% agonist activity when compared to the positive control.)”. Moreover, the IC50 in test [1] was 1000 to 10000 nM.
Consider `COc1ccc(C(=O)c2cc3cc(C)n(CCN4CCOC4=O)c3s2)cc1` [Compound 50, 3-(2-(2-(4-Methoxybenzoyl)-5-methyl-6H-thieno[2,3-b]pyrrol-6-yl)ethyl)oxazolidin-2-one], for which, at human CB1 receptors (setting [2]), the “hCB1 EC50 (cAMP ag, nM)” value is listed as “NS (NS means “Not Significant,” which means less than 30% agonist activity when compared to the positive control.)”. Moreover, the IC50 in test [1] was 1000 to 10000 nM.
On to `CCOc1ccc(C(=O)c2cc3cc(C)n(CCN4CCOCC4)c3s2)cc1` [Compound 55, (4-Ethoxyphenyl)(5-methyl-6-(2-morpholinoethyl)-6H-thieno[2,3-b]pyrrol-2-yl)methanone], for which, on human CB1 receptors (setting [3]), the 50% effective concentration (EC50) is 1000 to 10000 nM. Besides, in test [1], the IC50 lay within 100 to 1000 nM.
With `Cc1cc2cc(C(=O)c3ccc(N(C)C)cc3)sc2n1CCN1CCOCC1` [Compound 59, (4-(Dimethylamino)phenyl)(5-methyl-6-(2-morpholinoethyl)-6H-thieno[2,3-b]pyrrol-2-yl)methanone], on human CB1 receptors (setting [2]), the “hCB1 EC50 (cAMP ag, nM)” value is on record as “NS (NS means “Not Significant,” which means less than 30% agonist activity when compared to the positive control.)”. Also, the 50% inhibitory concentration (IC50) in test [1] was in the range of 1000 to 10000 nM.
Take `Cc1cc2cc(C(=O)c3ccc(F)cc3Cl)sc2n1CCN1CCOCC1` [Compound 64, (2-Chloro-4-fluorophenyl)(5-methyl-6-(2-morpholinoethyl)-6H-thieno[2,3-b]pyrrol-2-yl)methanone]: on human CB1 receptors (setting [3]), the EC50 is 100 to 1000 nM. For the same molecule, the IC50 in test [1] was under 100 nM.
Take `Cc1cc2cc(C(=O)c3ccc(OC(F)(F)F)cc3)sc2n1CCN1CCOCC1` [Compound 65, (5-Methyl-6-(2-morpholinoethyl)-6H-thieno[2,3-b]pyrrol-2-yl)(4-(trifluoromethoxy)phenyl)methanone]: the “hCB1 EC50 (cAMP ag, nM)” value at human CB1 receptors (setting [2]) is “NS (NS means “Not Significant,” which means less than 30% agonist activity when compared to the positive control.)”. Moreover, in test [1], the 50% inhibitory concentration (IC50) was in the range of 100 to 1000 nM.
Regarding `COc1ccc(C(=O)c2cc3cc(C)n(CCN4CCOCC4)c3s2)c(F)c1` [Compound 68, (2-Fluoro-4-methoxyphenyl)(5-methyl-6-(2-morpholinoethyl)-6H-thieno[2,3-b]pyrrol-2-yl)methanone], the EC50 at human CB1 receptors (setting [3]) was in the range of 1000 to 10000 nM. Besides, the IC50 in test [1] is under 100 nM.
Turning to `COc1ccc(C(=O)c2cc3cc(C)n(CCNS(C)(=O)=O)c3s2)cc1` [Compound 71, N-(2-(2-(4-Methoxybenzoyl)-5-methyl-6H-thieno[2,3-b]pyrrol-6-yl)ethyl)methanesulfonamide], the “hCB1 EC50 (cAMP ag, nM)” value at human CB1 receptors (setting [2]) is recorded as “NS (NS means “Not Significant,” which means less than 30% agonist activity when compared to the positive control.)”. In addition, the IC50 in test [1] lay within 1000 to 10000 nM.
Take `CCOC(=O)CCn1c(C)cc2cc(C(=O)c3ccc(OC)cc3)sc21` [Compound 72, Ethyl 3-(2-(4-methoxybenzoyl)-5-methyl-6H-thieno[2,3-b]pyrrol-6-yl)propanoate]: on human CB1 receptors (setting [2]), the “hCB1 EC50 (cAMP ag, nM)” value is given as “NS (NS means “Not Significant,” which means less than 30% agonist activity when compared to the positive control.)”. In addition, in test [1], the 50% inhibitory concentration (IC50) lay within 1000 to 10000 nM.
